This passage reports melting point and IC50 results from patent US6787651B2, “Substituted indoles, pharmaceutical compounds containing such indoles and their use as PPAR-γ binding agents” (SmithKline Beecham Corporation, priority 2000, dated 2004).

Each structure is given as a SMILES string. Like-named read-outs stand apart in the source and are kept apart here.

Data set [1] concerns the target T1, PPARγ ligand binding domain (LBD) (amino acids 195-475) (Homo sapiens, UniProt P37231).
T1 construct: polyHis; made in house; host or cells: Escherichia coli
T1 sequence (P37231 195-475 isoform P37231-2): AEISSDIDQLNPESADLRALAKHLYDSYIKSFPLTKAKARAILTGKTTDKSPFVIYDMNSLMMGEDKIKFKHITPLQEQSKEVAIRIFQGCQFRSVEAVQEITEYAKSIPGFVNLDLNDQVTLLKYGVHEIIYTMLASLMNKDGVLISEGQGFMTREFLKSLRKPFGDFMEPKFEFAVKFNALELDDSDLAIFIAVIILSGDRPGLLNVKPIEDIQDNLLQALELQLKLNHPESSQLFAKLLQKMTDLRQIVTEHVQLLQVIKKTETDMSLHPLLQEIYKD
Nature of the data set: PPAR-γ binding assay (spin plate / gel filtration binding assay, displacement of [3H]BRL 49653). How it is done:
The activity of a given compound in binding to PPAR-γ can be assayed routinely according to procedures known in the art. […] The PPAR-γ binding assay described below was used to determine the PPAR-γ binding activities of the compounds of the invention.
Compounds were tested for their ability to bind to PPARγ using a spin plate assay (gel filtration binding assay). […] Each compound was tested in triplicate. […] The plates were centrifuged (Beckman GS-6R) at 2500 rpm for 5 minutes, 170 μl Scitisafe® scintillation fluid (Fisher) was added to each well, the plates were sealed, and after 1 hour, were counted in a Wallac MicroBeta counter. The amount of nonspecific binding, as assessed by control wells containing 10 μM of the corresponding unlabeled ligand, was subtracted from each data point. For each compound tested, the data was averaged and plots of ligand concentration versus CPM of radioligand bound were constructed. Apparent IC50 values were estimated from nonlinear least-squares fit of the data assuming simple competitive binding.

Where [2] appears, read: read-out: IC50 range in the PPAR-γ Binding Assay.

Turning to `CCOc1ccc(-c2c(C(=O)O)n(Cc3ccc(F)cc3)c3ccc(COCC4CC4)cc23)cc1` [Example 347, 5-[(Cyclopropylmethoxy)methyl]-3-(4-ethoxyphenyl)-1-(4-fluorobenzyl)-1H-indole-2-carboxylic acid], the melting point (in general, the temperature of the solid-liquid transition) is 171 to 173 °C. Moreover, the half-inhibitory concentration (IC50) (commonly the concentration needed to halve the response being measured) in data set [1] (setting [2]) was in the range of 0.1 to 9.99 nM.
Regarding `COc1ccc(-c2c(C(=O)NS(=O)(=O)c3ccc(Cl)cc3)n(Cc3cccc(C(F)(F)F)c3)c3ccccc23)cc1` [Example 359], the melting point was determined as 166 °C. The IC50 in data set [1] (setting [2]) is 0.1 to 9.99 nM.
The matching figures for `COc1ccc(Cc2c(C(=O)O)n(Cc3cccc(OCC4CC4)c3)c3ccccc23)cc1` [Example 297]: 168 to 170 °C and 0.1 to 9.99 nM.
`COc1ccc(C(=O)c2c(C(=O)O)n(Cc3cccc(C(F)(F)F)c3)c3ccccc23)cc1` [Example 242] displayed a melting point of 215 to 216 °C. The molecule further came in with an IC50 in data set [1] of 10 to 10000 nM.
The molecule `CCOc1ccc(-c2c(C(=O)O)n(Cc3ccc(F)cc3)c3c(N(C)C(=O)C4CC4)cccc23)cc1` [Example 286] came in with a melting point of 128 °C. The IC50 in data set [1] (setting [2]) was in the range of 10 to 10000 nM.
In turn, `COc1cccc(Cn2c(C(=O)O)c(-c3ccc(C(=O)NC4CCCCC4)cc3)c3ccccc32)c1` [Example 325] yielded a melting point of 245 °C. In data set [1] (setting [2]), the IC50 was 10 to 10000 nM.
`COc1cccc(Cn2c(C(=O)O)c(-c3ccc(C(C)(C)C)cc3)c3c(OCC4CC4)cccc32)c1` [Example 296] had a melting point of 162 °C. In addition, in data set [1] (setting [2]), the IC50 is 10 to 10000 nM.
On to `COc1cccc(Cn2c(C(=O)O)c(-c3ccc(C(C)(C)C)cc3)c3cc(NCC4CC4)ccc32)c1` [Example 335], for which the melting point fell in the range of 180 to 181 °C. The IC50 in data set [1] (setting [2]) lay in the range of 0.1 to 9.99 nM.
The matching figures for `CC(C)(C)c1ccc(-c2c(C(=O)O)n(Cc3cccc(OC4CCCC4)c3)c3ccccc23)cc1` [Example 289]: 159 °C and 0.1 to 9.99 nM.
The matching figures for `COc1cccc(Cn2c(C(=O)O)c(-c3cccc(NC(=O)NC4CC4)c3)c3ccccc32)c1` [Example 294]: 110 °C (dec.) and 10 to 10000 nM.
The matching figures for `COc1cccc(Cn2c(C(=O)O)c(-c3ccc(C(C)(C)C)cc3)c3cc(NC(=O)NCC4CC4)ccc32)c1` [Example 270]: 141 to 142 °C and 10 to 10000 nM.
As for `COc1ccc(-c2c(C(=O)O)n(Cc3cccc(OC)c3)c3c(N(C)C(=O)C4CC4)cccc23)cc1` [Example 303], the melting point is 98 °C (dec.). Besides, the IC50 in data set [1] (setting [2]) fell in the range of 10 to 10000 nM.
`COc1cccc(Cn2c(C(=O)O)c(-c3cccc(N(C)C(=O)C4CC4)c3)c3ccccc32)c1` [Example 295] came in with a melting point of 200 °C. Also, the IC50 in data set [1] (setting [2]) lay in the range of 10 to 10000 nM.
Consider `COc1cccc(Cn2c(C(=O)O)c(-c3ccc(C(C)(C)C)cc3)c3cc(C4CCCC4)ccc32)c1` [Example 273], for which the melting point lay within 192 to 193 °C. The half-maximal inhibitory concentration (IC50) in data set [1] (setting [2]) lay in the range of 0.1 to 9.99 nM.
The matching figures for `COc1cccc(Cn2c(C(=O)O)c(-c3ccc(-c4ccco4)cc3)c3ccccc32)c1` [Example 240]: 190 to 192 °C and 0.1 to 9.99 nM.
Turning to `COc1cccc(Cn2c(C(=O)O)c(-c3ccc(C(C)(C)C)cc3)c3cccc(N(C)C(=O)N(C)C4CC4)c32)c1` [Example 293], the melting point is 112 to 115 °C (dec.). Also, the IC50 in data set [1] (setting [2]) fell in the range of 10 to 10000 nM.
Molecule `O=C(O)c1c(-c2cc3ccccc3o2)c2ccccc2n1Cc1cccc(C(F)(F)F)c1` [Example 235] registered a melting point of 211 to 214 °C. The IC50 in data set [1] (setting [2]) was in the range of 0.1 to 9.99 nM.
As to `COc1cccc(Cn2c(C(=O)O)c(-c3cccc(NC(=O)C4CCCC4)c3)c3ccccc32)c1` [Example 327], the melting point was 133 °C (dec.). Besides, the IC50 in data set [1] (setting [2]) lay within 10 to 10000 nM.
For `COc1ccc(-c2c(C(=O)O)n(Cc3cccc(OC)c3)c3c(NC(=O)C4CC4)cccc23)cc1` [Example 302], the melting point is 210 °C (dec.). Moreover, the IC50 in data set [1] (setting [2]) lay in the range of 10 to 10000 nM.
The matching figures for `O=C(O)c1c(-c2ccco2)c2ccccc2n1Cc1cccc(C(F)(F)F)c1` [Example 237]: 172 to 173 °C and 0.1 to 9.99 nM.
